Tests used:
[1] = test system: Plasmodium falciparum; assay: NOVARTIS: Inhibition of Plasmodium falciparum W2 (drug-resistant) proliferation in erythrocyte-based infection assay; assay type: functional, organism-based; details: Plasmodium falciparum, W2; read-out: EC50
[2] = NOVARTIS: Cytotoxicity against human hepatocellular carcinoma cell line (Huh7); assay type: toxicity, cell-based, Huh-7; details: Huh7 cells (hepatocellular carcinoma cell line)
[3] = test system: Plasmodium falciparum; assay: NOVARTIS: Inhibition of Plasmodium falciparum 3D7 (drug-susceptible) proliferation in erythrocyte-based infection assay; assay type: functional, organism-based; details: Plasmodium falciparum, 3D7

| SMILES | EC50 [1] | CC50 [2] | EC50 [3] |
| --- | --- | --- | --- |
| CCCCCCN(C(=O)Nc1cccc(C#N)c1)C(CC)c1nc2ccccc2c(=O)n1CCC(=O)OC (stereo unspecified) | 1.07 µM | > 10 µM | 0.979 µM |
| CCOc1ccc(CCNC(=O)Nc2ccc(F)cc2)cc1OCC | 0.492 µM | > 74.7 µM | 0.751 µM |
| CCOC(=O)c1ccc2c(c1)[n+](CC)c(/C=C/N(C)c1ccccc1)n2CC | 0.588 µM | 34.4 µM | 0.272 µM |
| CN(CCCNc1ccnc2cc(Cl)ccc12)C(=O)c1ccc(C(F)(F)F)cc1 | 0.319 µM | 64.6 µM | 0.166 µM |
| CCN1CC=C(c2c[nH]c3ccccc23)CC1 | 0.339 µM | > 10 µM | 0.885 µM |
| CC(=O)Nc1ccccc1-c1nnn(CC(N)=O)n1 | > 10.4 µM | > 100 µM | > 10.5 µM |
| COc1ccc(C2CC(=O)C3=C(C2)NC(C)=C(C(=O)OC2CCCC2)C3c2cccc(Cl)c2)cc1OC (stereo unspecified) | 0.0758 µM | 16.9 µM | 0.201 µM |
| CCc1[nH]nc2c1C(Cc1ccccc1)C(C#N)=C(N)O2 (stereo unspecified) | 0.393 µM | > 10 µM | > 1.25 µM |
| COc1cccc2c(C)cc(NCc3ccccc3Cl)nc12 | > 0.985 µM | > 10 µM | > 1.25 µM |
| COc1ccccc1C1CC(=O)N2CN(Cc3ccccc3)CSC2=C1C#N (stereo unspecified) | 0.337 µM | > 100 µM | 0.599 µM |
| COCCN(CC(=O)NCc1ccc(OC2CCN(CC(c3ccccc3)c3ccccc3)CC2)cc1)S(=O)(=O)c1ccccc1 | 0.526 µM | > 10 µM | 1 µM |
| CC(=O)N(Cc1ccc2c(c1)OCO2)C1CC(=O)N(c2ccccc2)C1=O (stereo unspecified) | > 0.381 µM | > 10 µM | > 1.25 µM |
| Cc1cc2c(Nc3cccc(Cl)c3C)ncnc2s1 | 1.19 µM | > 100 µM | 1.91 µM |
| C[n+]1ccc(C=Cc2ccccc2F)c2ccccc21 | 0.0781 µM | 81.9 µM | 0.0576 µM |
| CN(C)c1cc[n+](CC(=O)c2ccc(Cl)cc2)cc1 | 0.132 µM | > 100 µM | 0.168 µM |
| CCOC(=O)c1c(N)n(-c2ccc(CC)cc2)c2nc3ccccc3nc12 | 0.823 µM | > 100 µM | 0.797 µM |
| COc1cc(C(=O)N2N=C(c3c(-c4ccccc4)c4cc(Br)ccc4[nH]c3=O)CC2c2cccc([N+](=O)[O-])c2)cc(OC)c1OC (stereo unspecified) | 0.288 µM | > 100 µM | 0.362 µM |
| C/C=C/c1n(C)c2ccccc2[n+]1C | 0.589 µM | > 10 µM | 0.501 µM |
| CCCCc1c(C)nc2ccc(Br)cc2c1O | 0.532 µM | > 100 µM | 1.96 µM |
| CC(NS(=O)(=O)c1ccccc1)C(=O)NC1CCCC1 (stereo unspecified) | 4.62 µM | > 100 µM | > 4.32 µM |
| Cc1ccc(OCCCCN2CCOCC2)c([N+](=O)[O-])c1 | > 1.29 µM | > 10 µM | > 0.564 µM |
| CC1(C)CC(=O)C(=CNc2nc3c(s2)CCc2c-3cnn2-c2ccccc2)C(=O)C1 | > 1.25 µM | > 10 µM | > 0.942 µM |
| O=C(Nc1cccc(C(F)(F)F)c1)c1ccc(-c2cccs2)cc1 | 1.94 µM | 7.13 µM | 10 µM |
| CC(C)(C)NC(=O)C(c1ccc(F)cc1)N(CCCN1CCOCC1)C(=O)c1ccc(-c2ccccc2)[nH]1 (stereo unspecified) | 0.562 µM | > 10 µM | 1.01 µM |
| CC(C)CNC(=O)c1cnc(NCCCN2CCCCC2C)nc1Nc1ccccc1 (stereo unspecified) | > 1.25 µM | > 10 µM | 1.15 µM |
| Cc1cc(Cl)c(S(=O)(=O)N2CCSCC2)cc1OCC(=O)NC1CCCCC1 | 0.153 µM | > 100 µM | 0.186 µM |

| SMILES | EC50 [1] | CC50 [2] | EC50 [3] |
| --- | --- | --- | --- |
| Cc1ccc(Nc2nc(NCc3ccccc3)c3ccccc3n2)cc1 | 0.241 µM | 10.9 µM | 0.184 µM |
| C=Cc1cc2ccccc2c2cc3c(cc12)C[N+](C)(C)C3 | 0.974 µM | > 100 µM | 0.654 µM |
| Oc1ccc(-c2cncc(NCc3ccc(Cl)cc3)c2)cc1 | 0.405 µM | > 10 µM | 0.439 µM |
| O=C1CSC(=S)N1c1cccc(Cl)c1 | > 12.5 µM | > 100 µM | 6.87 µM |
| CCC(/C=C1\Sc2ccc3ccccc3c2N1C)=C\c1sc2ccc3ccccc3c2[n+]1C | 6.37 µM | > 100 µM | 2.61 µM |
| CC(C)Sc1nc2c(c(=O)n1Cc1ccco1)C1(CCCCC1)Cc1ccccc1-2 | > 12.5 µM | > 100 µM | 9.56 µM |
| Cc1ccc(NC(=O)C(C)Sc2nnc(-c3ccc(O)cc3)o2)cc1 (stereo unspecified) | 0.601 µM | > 10 µM | > 1.25 µM |
| O=S(=O)(c1ccc(Cl)cc1)N1CCN(C(=S)NCc2ccco2)CC1 | 0.524 µM | > 100 µM | 0.973 µM |
| Cc1cc(C)nc(Nc2nc(C)c3cc(C)c(C)cc3n2)n1 | 0.829 µM | > 100 µM | 1.32 µM |
| CCOc1cc(/C=C(\C#N)c2nc3ccccc3[nH]2)ccc1OCc1ccccc1C#N | 0.214 µM | > 10 µM | > 1.12 µM |
| CC1Cc2ccc(F)cc2CN1C(=O)c1ccc(COc2ccccc2Br)o1 (stereo unspecified) | 6.35 µM | > 100 µM | 8.37 µM |
| CCOC(=O)c1ccc(NC(=O)c2sc(NC(=O)c3cc(OC)c(OC)c(OC)c3)c(C(=O)OCC)c2C)cc1 | > 1.25 µM | > 10 µM | > 0.995 µM |
| Brc1ccc2[nH]c3c(NCCCN4CCOCC4)ncnc3c2c1 | 0.957 µM | > 98.7 µM | 0.359 µM |
| CC1=C(C(=O)OC2CCCCC2)C(c2ccc(F)cc2)C2=C(CC(c3ccccc3)CC2=O)N1 (stereo unspecified) | 0.653 µM | > 100 µM | 3.69 µM |
| COc1cc(CNCCCN(C)C)ccc1OCc1ccc(F)cc1Cl | 0.159 µM | 4.16 µM | 0.092 µM |
| COc1ccccc1N1C(=N)SC(=Cc2ccc(OCc3ccccc3F)cc2)C1=O | 1.08 µM | > 100 µM | 0.422 µM |
| COc1ccc(C=NNc2cc(C)nc3ccccc23)cc1 | 0.207 µM | 18.9 µM | 0.228 µM |
| CCCOc1ccc(NC(=O)c2ccco2)cc1 | 0.406 µM | 16.9 µM | 1.15 µM |
| COc1cc2c(-c3cc(Br)ccc3O)nc3c(c(-c4ccccc4)nn3-c3ccccc3)c2cc1OC | 0.655 µM | > 100 µM | 1.15 µM |
| O=C(Nc1ccc(C(=O)Nc2cccc(C3=NCCN3)c2)cc1)c1ccc(C2=NCCN2)cc1 | 0.128 µM | > 100 µM | 0.193 µM |
| CCCCCCOc1ccc(NC(=O)c2cccs2)cc1 | 0.972 µM | > 100 µM | 0.396 µM |
| CCN(CC)Cc1cc(Nc2ccnc3cc(Cl)ccc23)ccc1O | 0.013 µM | > 100 µM | 0.0103 µM |
| Cc1ccnc(NS(=O)(=O)c2ccc(NC(=O)C(C)C)cc2)n1 | 1.69 µM | > 100 µM | > 6.15 µM |
| COc1cc(NC(C)CCCN(Cc2ccc(N(C)C)cc2)S(=O)(=O)c2cccc3ccccc23)c2ncccc2c1 (stereo unspecified) | 0.645 µM | > 13.9 µM | 0.806 µM |
| COc1ccc(C2CC(=O)C3=C(C2)NC(C)=C(C(=O)OC2CCCC2)C3c2cccc(C)c2)cc1OC (stereo unspecified) | 0.208 µM | 14.9 µM | 0.3 µM |
| Cc1ccc(-c2nnc(Nc3ccc(F)cc3)c3ccccc23)cc1S(=O)(=O)NCC1CCCO1 (stereo unspecified) | 3.11 µM | > 100 µM | 1.71 µM |
